According to patent publication US20140205631A1, “Stimulation of vaccination by angiotensin peptides” (University of Southern California, priority 2013, published 2014):

How the values were obtained:
[1] = test system: HIV-gp120 antigen; assay: Vaginal secretion IgG antibody titers (ELISA) after vaccination of cats; format: in vivo, human immunodeficiency virus (HIV); details: for IgG Anti-HIV gp120: vaginal, Week 8, lowest dilution 1:4, elution factor 300-fold
Method: (§1) Animals: Eleven (11) female outbred cats>24 weeks old that were free of FIV, feline leukemia virus (FeLV) and feline infectious peritonitis virus were employed. The animals were restrained for the application of test articles to mucous membranes and collection of blood and mucosal secretions. Sedation, if necessary, was induced by subcutaneous administration of ketamine hydrochloride (22 mg/kg) and acepromazine maleate (0.1 mg/kg). Euthanasia was accomplished with a lethal overdose of barbiturates. All activities were approved by the Institutional Animal Care and Use Committee and supervised by veterinary staff.
(§2) Vaccine Preparation: Fel-O-Vax FIV (Fort Dodge Animal Health, Fort Dodge, Iowa) and A(1-7) was combined in a constant volume of 2% hydroxyethyl cellulose (2% HEC). The range of concentrations of A(1-7) ranged from 0 to 10 mg/mL with a constant 0.33 mL of Fel-O-Vax FIV suspended in each mL of the gel applied for vaccination purposes. Two control animals received intramuscular Fel-O-Vax FIV at baseline, week 3 and week 5. One control animal had mucosal vaccination with Fel-O-Vax alone suspended in the 2% HEC without A(1-7) and one control animal received intramuscular Fel-O-Vax FIV with 0.3 mg/kg of A(1-7) at baseline, week 3 and week 5.
(§3) Delivery of angiotensin(1-7) and FIV vaccine to mucosal surfaces: 2% HEC, a viscous gel, was used as the vehicle for the topical delivery of angiotensin(1-7) and FIV vaccine. The topical vaccine was applied to the mucosal surface weekly for 6 consecutive weeks. 1.0 mL was applied to the muzzle for oral mucosal vaccination and 1.0 mL and 0.2 mL was instilled in the rectal and vaginal vaults, respectively for mucosal vaccination at these sites.
(§4) Measurement of Local Immune Response: The Weck-Cel Surgical Spear (Windsor Biomedical, Newton, N.H.) was used to obtain secretions. Once inserted, the sponge is allowed to remain in place for 5 minutes. The secretions were extracted by centrifugation with 300 μL of a buffer solution. The buffer solution is prepared by mixing 50 μL of 100× protease inhibitor cocktail and 250 μL of 10% Igepal (Sigma, St Louis, Mo., U.S.A.) with 4.7 ml of phosphate-buffered saline (PBS) containing 0.25% bovine serum albumin (BSA, Fraction V; Sigma). The 100× protease inhibitor cocktail contains 100 μg/mL aprotinin, 500 μg/mL leupeptin, 100 μg/mL bestatin (all Sigma), and 50 μg/mL 4-(2-Aminoethyl)-benzenesulfonyl fluoride hydrochloride (Roche Applied Sciences, U.S.A.) in phosphate buffered saline.
(§5) The local immune response in mucosal secretions was evaluated against the homologous FIV-p24 antigen (Cell Biolabs, Inc, San Diego, Calif.) or the heterologous HIV-gp120 antigen (ImmunoDiagnostics, Inc, Woburn, Mass.). Plates were prepared with 50 ng/mL FIV-p24 antigen or with 500 ng/mL HIV-gp120 antigen (Bachem Americans, Inc, Torrance, Calif.) incubated over night at 4° C., washed and the target sample added and incubated overnight again at 4° C. The plates were washed and the indicator goat anti-feline IgG (Accurate Chemical & Scientific Corp., Westbury, N.Y., working titer 1:10,000) or goat anti-feline IgA (Accurate Chemical & Scientific Corp., Westbury, N.Y., working titer 1:1,000) added and incubated for 24 hours at 4° C. Following a final wash, substrate solution was added. The stop solution was added after 15 minutes for the IgG reaction and after 30 minutes for the IgA reaction. Plates were read at 450 nm.

[2] = test system: HIV-gp120 antigen; assay: Oral secretion SIgA antibody titers (ELISA) after vaccination of cats; format: in vivo, human immunodeficiency virus (HIV); details: for SIgA anti-HIV-gp120: oral, Week 8, lowest dilution 1:4, elution factor 4-fold
Method: as §1, §2, §3, §4, §5

[3] = test system: FIV-p24 antigen; assay: Rectal secretion SIgA antibody titers (ELISA) after vaccination of cats; format: in vivo, feline immunodeficiency virus (FIV); details: for SIgA Anti-FIV-p24: rectal, lowest dilution Undilute
Method: as §1, §2, §3, §4, §5

[4] = test system: HIV-gp120 antigen; assay: as above; format: in vivo, human immunodeficiency virus (HIV); details: parenteral vaccination or topical application of Fel-O-Vax FIV with A(1-7)
Method: as §1
as §2, with “One control animal had mucosal vaccination with Fel-O-Vax alone suspended in the 2% HEC without A(1-7) and one control animal received intramuscular Fel-O-Vax FIV with 0.3 mg/kg of A(1-7) at baseline, week 3 and week 5.” left out
The local immune response in mucosal secretions was evaluated against the homologous FIV-p24 antigen (Cell Biolabs, Inc, San Diego, Calif.) or the heterologous HIV-gp120 antigen (ImmunoDiagnostics, Inc, Woburn, Mass.). […] Plates were read at 450 nm.

[5] = test system: FIV-p24 antigen; assay: Vaginal secretion SIgA antibody titers (ELISA) after vaccination of cats; format: in vivo, feline immunodeficiency virus (FIV); details: for SIgA Anti-FIV-p24: vaginal, lowest dilution Undilute
Method: as §1, §2, §3, §4, §5

[6] = topical Fel-O-Vax FIV + 7.5 A(1-7) in 2% HEC
[7] = topical Fel-O-Vax FIV + 10.0 A(1-7) in 2% HEC
[8] = IM Fel-O-Vax FIV + 0.3 mg/kg A(1-7), Week 4
[9] = IM Fel-O-Vax FIV + 0.3 mg/kg A(1-7), Week 6
[10] = topical Fel-O-Vax FIV + 0.1 A(1-7) in 2% HEC, Week 2
[11] = topical Fel-O-Vax FIV + 0.2 A(1-7) in 2% HEC, Week 2
[12] = topical Fel-O-Vax FIV + 0.2 A(1-7) in 2% HEC, Week 8
[13] = topical Fel-O-Vax FIV + 0.3 A(1-7) in 2% HEC, Week 6
[14] = topical Fel-O-Vax FIV + 0.3 A(1-7) in 2% HEC, Week 8
[15] = topical Fel-O-Vax FIV + 5.0 A(1-7) in 2% HEC, Week 4
[16] = topical Fel-O-Vax FIV + 5.0 A(1-7) in 2% HEC, Week 6
[17] = topical Fel-O-Vax FIV + 5.0 A(1-7) in 2% HEC, Week 8
[18] = topical Fel-O-Vax FIV + 7.5 A(1-7) in 2% HEC, Week 2
[19] = topical Fel-O-Vax FIV + 7.5 A(1-7) in 2% HEC, Week 4
[20] = topical Fel-O-Vax FIV + 7.5 A(1-7) in 2% HEC, Week 8
[21] = topical Fel-O-Vax FIV + 10.0 A(1-7) in 2% HEC, Week 2
[22] = topical Fel-O-Vax FIV + 10.0 A(1-7) in 2% HEC, Week 6
[23] = topical Fel-O-Vax FIV + 10.0 A(1-7) in 2% HEC, Week 8

Asp-Arg-Val-Tyr-Ile-His-Pro (DRVYIHP) [A(1-7)]
IgG antibody induction in vaginal secretions ([1]; topical, higher dose levels of A(1-7)): declined | IgG anti-HIV-gp120 antibodies in vaginal secretions ([1]; topical, lower dose levels of A(1-7)): also elicited | IgG Anti-HIV gp120 ([1]; topical Fel-O-Vax FIV + 0.1 A(1-7) in 2% HEC): Negative | IgG Anti-HIV gp120 ([1]; topical Fel-O-Vax FIV + 5.0 A(1-7) in 2% HEC): Negative | IgG Anti-HIV gp120 [1, 6]: Negative | IgG Anti-HIV gp120 [1, 7]: Negative | SIgA-HIV-gp120 antibodies in oral secretions ([2]; A(1-7) combined with the intramuscular injections of Fel-O-Vax FIV): even higher titers | dose response of oral SIgA-anti-HIV-gp120 antibody titers ([2]; increasing A(1-7) concentrations in the topical vaccine): initial raise and then decline | SIgA anti-HIV-gp120 [2, 6]: Negative | SIgA anti-HIV-gp120 [2, 7]: Negative | SIgA-anti-HIV-gp120 antibody titers in oral secretions ([2]; topical application of the FIV antigen and A(1-7), compared with intramuscular): Comparable levels | SIgA-anti-FIV-p24 (rectal, Table 4) ([3]; both methods of vaccination (parenteral or topical Fel-O-Vax FIV with A(1-7))): Low levels | mucosal anti-FIV antibodies in the rectum ([3]; injection of A(1-7) with FIV antigens): increased | SIgA Anti-FIV-p24 [3, 8]: Undilute | SIgA Anti-FIV-p24 [3, 9]: Negative | SIgA Anti-FIV-p24 ([3]; IM Fel-O-Vax FIV + 0.3 mg/kg A(1-7), Week 8): Undilute | SIgA Anti-FIV-p24 [3, 10]: Undilute | SIgA Anti-FIV-p24 ([3]; topical Fel-O-Vax FIV + 0.1 A(1-7) in 2% HEC, Week 6): Undilute | SIgA Anti-FIV-p24 ([3]; topical Fel-O-Vax FIV + 0.1 A(1-7) in 2% HEC, Week 8): Undilute | SIgA Anti-FIV-p24 [3, 11]: Undilute | SIgA Anti-FIV-p24 ([3]; topical Fel-O-Vax FIV + 0.2 A(1-7) in 2% HEC, Week 6): Negative | SIgA Anti-FIV-p24 [3, 12]: Negative | SIgA Anti-FIV-p24 ([3]; topical Fel-O-Vax FIV + 0.3 A(1-7) in 2% HEC, Week 2): Undilute | SIgA Anti-FIV-p24 ([3]; topical Fel-O-Vax FIV + 0.3 A(1-7) in 2% HEC, Week 4): Undilute | SIgA Anti-FIV-p24 [3, 13]: Negative | SIgA Anti-FIV-p24 [3, 14]: Negative | SIgA Anti-FIV-p24 ([3]; topical Fel-O-Vax FIV + 0.4 A(1-7) in 2% HEC, Week 4): Undilute | SIgA Anti-FIV-p24 ([3]; topical Fel-O-Vax FIV + 0.4 A(1-7) in 2% HEC, Week 6): Undilute | SIgA Anti-FIV-p24 [3, 15]: Negative | SIgA Anti-FIV-p24 [3, 16]: Negative | SIgA Anti-FIV-p24 [3, 17]: Negative | SIgA Anti-FIV-p24 [3, 18]: Negative | SIgA Anti-FIV-p24 [3, 19]: Negative | SIgA Anti-FIV-p24 [3, 20]: Negative | SIgA Anti-FIV-p24 [3, 21]: Negative | SIgA Anti-FIV-p24 ([3]; topical Fel-O-Vax FIV + 10.0 A(1-7) in 2% HEC, Week 4): Negative | SIgA Anti-FIV-p24 [3, 22]: Negative | SIgA Anti-FIV-p24 [3, 23]: Negative | SIgA anti-HIV-gp120 (rectal, Table 4) [4]: High levels | SIgA against FIV-p24 in vaginal secretions ([5]; Topical application of FIV antigen with A(1-7)): only low levels | SIgA Anti-FIV-p24 ([5]; IM Fel-O-Vax FIV + 0.3 mg/kg A(1-7), Week 2): Negative | SIgA Anti-FIV-p24 [5, 8]: Undilute | SIgA Anti-FIV-p24 [5, 9]: Undilute | SIgA Anti-FIV-p24 [5, 10]: Undilute | SIgA Anti-FIV-p24 ([5]; topical Fel-O-Vax FIV + 0.1 A(1-7) in 2% HEC, Week 4): Undilute | SIgA Anti-FIV-p24 [5, 11]: Undilute | SIgA Anti-FIV-p24 [5, 12]: Undilute | SIgA Anti-FIV-p24 [5, 13]: Undilute | SIgA Anti-FIV-p24 [5, 14]: Negative | SIgA Anti-FIV-p24 ([5]; topical Fel-O-Vax FIV + 5.0 A(1-7) in 2% HEC, Week 2): Negative | SIgA Anti-FIV-p24 [5, 15]: Negative | SIgA Anti-FIV-p24 [5, 16]: Negative | SIgA Anti-FIV-p24 [5, 17]: Negative | SIgA Anti-FIV-p24 [5, 18]: Negative | SIgA Anti-FIV-p24 [5, 19]: Negative | SIgA Anti-FIV-p24 ([5]; topical Fel-O-Vax FIV + 7.5 A(1-7) in 2% HEC, Week 6): Negative | SIgA Anti-FIV-p24 [5, 20]: Negative | SIgA Anti-FIV-p24 [5, 21]: Negative | SIgA Anti-FIV-p24 [5, 22]: Negative | SIgA Anti-FIV-p24 [5, 23]: Negative
